Data: ChEMBL document CHEMBL5236550, “Small molecule selenium-containing compounds: Recent development and therapeutic applications” (Eur J Med Chem, 2021)
Converted amounts (≈) assume the structure as drawn.

What was measured:
WM-115 = assay: Anticancer activity against human WM-115 cells assessed as cell growth inhibition incubated for 72 hrs by MTT assay; assay type: functional
LNCaP C4-2 = assay: Anticancer activity against human LNCaP C4-2 cells assessed as cell growth inhibition incubated for 24 hrs by MTT assay; assay type: functional, cell-based; conditions: LNCaP C4-2, 24 h
LNCaP = assay: Anticancer activity against human LNCaP cells assessed as cell growth inhibition incubated for 1.5 hrs by MTT assay; assay type: functional, cell-based
Candida albicans [1] = assay: Antifungal activity against Candida albicans ATC90028 assessed as […] growth inhibition; assay type: functional
Candida albicans [2] = assay: Antifungal activity against Candida albicans ATC90028 assessed as zone of inhibition; assay type: functional
Trypanosoma cruzi = assay: Antibacterial activity against Trypanosoma cruzi Dm28c assessed as inhibition of bacterial growth incubated for 72 hrs by microplate reader analysis; assay type: functional, organism-based
SH-SY5Y = assay: Anticancer activity against human SH-SY5Y cells assessed as cell viability incubated for 24 hrs by MTT assay relative to control; assay type: functional
Human alphaherpesvirus 1 = assay: Antiviral activity against Herpes simplex virus 1infected in A549 cells assessed as viral growth inhibition incubated for 1 hrs; assay type: functional
[3] = tested on: Encephalomyocarditis virus; assay: Antiviral activity against Encephalomyocarditis virus infected in A549 cells assessed as viral growth inhibition incubated for 1 hrs; assay type: functional, organism-based; conditions: Cardiovirus A, A549, 1 h
LS174T = assay: Anticancer activity against human LS174T cells assessed as cell growth inhibition incubated for 48 hrs by MTT assay; assay type: functional, cell-based
MDA-MB-361 = assay: Anticancer activity against human MDA-MB-361 cells assessed as cell growth inhibition incubated for 48 hrs by MTT assay; assay type: functional, cell-based; conditions: MDA-MB-361, 48 h
HeLa [4] = assay: Anticancer activity against human HeLa cells assessed as cell growth inhibition incubated for 48 hrs; assay type: functional, cell-based
HeLa [5] = assay: Anticancer activity against human HeLa cells assessed as cell growth inhibition incubated for 48 hrs by MTT assay; assay type: functional, cell-based
K562 = assay: Anticancer activity against human K562 cells assessed as cell growth inhibition incubated for 48 hrs by MTT assay; assay type: functional, cell-based; conditions: K562, 48 h
PC-3 [6] = assay: Anticancer activity against human PC-3 cells assessed as cell growth inhibition measured upto 72 hrs by MTT assay; assay type: functional, cell-based; conditions: PC-3, 72 h
Caco-2 = assay: Anticancer activity against human Caco-2 cells assessed as cell growth inhibition measured upto 72 hrs by MTT assay; assay type: functional, cell-based; conditions: Caco-2, 72 h
BGC-823 = assay: Anticancer activity against human BGC-823 cells assessed as cell growth inhibition measured upto 72 hrs by MTT assay; assay type: functional, cell-based; conditions: BGC-823, 72 h
MCF7 [7] = assay: Anticancer activity against human MCF7 cells assessed as cell growth inhibition measured upto 72 hrs by MTT assay; assay type: functional, cell-based; conditions: MCF7, 72 h
Pichia kudriavzevii = assay: Antifungal activity against Candida krusei assessed as fungal growth inhibition incubated for 24 to 48 hrs by microdilution method; assay type: functional; conditions: time 24-48 hrs
MCF7 [8] = assay: Anticancer activity against human MCF7 cells assessed as cell growth incubation incubated for 72 hrs by MTT assay; assay type: functional, cell-based; conditions: MCF7, 72 h
PC-3 [9] = assay: Anticancer activity against human PC-3 cells assessed as cell growth incubation incubated for 72 hrs by MTT assay; assay type: functional, cell-based; conditions: PC-3, 72 h
[10] = Anticancer activity against human PMNL assessed as cell growth inhibition incubated for 5 mins by luminescence reader analysis; assay type: functional, cell-based
EJ = assay: Anticancer activity against human EJ cells assessed as cell growth inhibition incubated for 72 hrs by MTT assay; assay type: functional, cell-based
[11] = Anticancer activity against human PMNL assessed as cell growth inhibition; assay type: functional, cell-based
[12] = Anticancer activity against human SWO-38 cells assessed as cell growth inhibition incubated for 48 hrs by MTT assay; assay type: functional, cell-based; conditions: SWO-38, 48 h
MCF7 [13] = assay: Anticancer activity against human MCF7 cells assessed as cell growth inhibition incubated for 48 hrs by MTT assay; assay type: functional, cell-based; conditions: MCF7, 48 h

N#C[Se]CCCCCC(=O)Nc1ccccc1
IC5 (WM-115): 0.8 µM

N#C[Se]Cc1ccc(C[Se]C#N)cc1
IC50 (LNCaP C4-2): 7.6 µM | IC50 (LNCaP): 7 µM

Cc1ccc(C(=O)C[C@@H](c2ccc(Cl)cc2)[C@@H]2CCCc3[se]nnc32)cc1
MIC (Candida albicans [1]): 12.5 µg/mL (≈ 28.2 µM) | inhibition zone (IZ) (Candida albicans [2]): 17 mm

O=C(C[C@@H](c1ccc(Cl)cc1)[C@@H]1CCCc2[se]nnc21)c1ccc(Cl)cc1
MIC (Candida albicans [1]): 12.5 µg/mL (≈ 26.9 µM) | inhibition zone (IZ) (Candida albicans [2]): 15 mm

NC(=[Se])NN=C(c1cccc(Br)c1)c1cccc(Br)c1
IC50 (Trypanosoma cruzi): 1.2 µM

C=CCn1[se]c2ccccc2c1=O
Activity (SH-SY5Y): 86%

O=c1c2ccccc2[se]n1Cc1ccccc1
MIC (Human alphaherpesvirus 1): 2 µg/mL (≈ 6.94 µM) | IC50 [3]: 6 µg/mL (≈ 20.8 µM)

NC(=[Se])N/N=C/c1cccc2cccnc12
IC50 (LS174T): 14.4 µM | IC50 (MDA-MB-361): 9.2 µM | IC50 (HeLa [4]): 6.6 µM | IC50 (HeLa [5]): 9.2 µM | IC50 (K562): 4 µM

N#C[Se]CCCNC(=O)c1ccccc1Nc1cccc(C(F)(F)F)c1
IC50 (PC-3 [6]): 1.9 µM | IC50 (Caco-2): 1.9 µM | IC50 (BGC-823): 1.9 µM | IC50 (MCF7 [7]): 1.9 µM

O=c1c2ccccc2[se]n1-c1ccccn1
Activity (SH-SY5Y): 84%

COc1ccc(-c2c[se]c(NN=C3CCSCC3)n2)cc1
MIC (Pichia kudriavzevii): 3.91 µg/mL (≈ 10.7 µM)

Brc1ccc(-c2c[se]c(NN=C3CCSCC3)n2)cc1
MIC (Pichia kudriavzevii): 3.91 µg/mL (≈ 9.42 µM)

O=C(O)C[Se]C(=O)Cc1ccccc1
IC50 (MCF7 [8]): 0.006 µM | IC50 (PC-3 [9]): 2.9 µM

[Se]=C(c1ccccc1)N1CCCCC1
IC50 [10]: 11.3 µM

N#Cc1ccc(C(=O)[Se]CC(=O)O)cc1
IC50 (PC-3 [9]): 10 µM

CC(=O)n1[se]c2ccccc2c1=O
MIC (Human alphaherpesvirus 1): 4 µg/mL (≈ 16.7 µM) | IC50 [3]: 6 µg/mL (≈ 25 µM)

COc1ccc(-c2nc3ccc(-c4ccc5n[se]nc5c4)cc3[nH]2)cc1
IC50 (EJ): 1.48 µM

O=C(O)C[Se]C(=O)c1cccnc1Cl
IC50 (MCF7 [8]): 0.003 µM | IC50 (PC-3 [9]): 10 µM

O=C(O)C[Se]C(=O)c1ccccc1
IC50 (MCF7 [8]): 0.09 µM | IC50 (PC-3 [9]): 6.8 µM

COc1cc(OC)cc(C(=O)[Se]CC(=O)O)c1
IC50 (PC-3 [9]): 4 µM

FC(F)(F)c1ccc(-c2c[se]c(NN=C3CCSCC3)n2)cc1
MIC (Pichia kudriavzevii): 0.98 µg/mL (≈ 2.42 µM)

CCCC/C(=N\NC(N)=[Se])c1ccc(Cl)c(Cl)c1
IC50 (Trypanosoma cruzi): 1.2 µM

NC(=[Se])N1CCCC1
IC50 [11]: 6.5 µM

Nc1ccc(-c2ccc3n[se]nc3c2)cc1N
IC50 [12]: 22.5 µM

CCNCc1ccccc1[Se][Se]c1ccccc1CNCC
IC50 (MCF7 [13]): 15 µM
